Data reported in patent US20110150914A1, “COMPOSITIONS AND METHODS FOR DENGUE VIRUS (DV) TREATMENT AND VACCINATION” (priority 2008, published 2011).
Ends that are not written are not given here.

Assays:
CD8^+ T cells = experiment: TNF-α and CD107a staining after peptide re-stimulation; format: cell-based, wild-type or IFN-α/βR^−/− mice; details: splenocytes day 7 after S221 infection
Method: All Ab were purchased from eBioscience with the exception of anti-CD8α-PerCP and anti-CD107a-FITC which were obtained from BD Biosciences. RBC in blood were lysed using RBC lysis buffer (eBioscience). For surface staining, splenocytes or blood cells were washed, incubated with supernatant from 2.4G2-producing hybridoma cells to block Fc receptors, and labeled with anti-CD8α-PerCP, anti-CD44-APC, and anti-CD62L-PE. For intracellular cytokine staining, 10^6 splenocytes or 10^5 blood cells were plated in 96-well U-bottom plates and stimulated with individual DENV peptides (0.1 μg/ml) in the presence of brefeldin A (GolgiPlug, BD Biosciences) for 5 h. For CD107a staining, CD107a-FITC (or rat IgG2a-FITC) was added to the wells at the same time as the peptide. Cells were washed, incubated with 2.4G2 supernatant, labeled with anti-CD8α-PerCP, fixed and permeabilized using the BD Cytofix/Cytoperm Kit, and stained with anti-IFN-γ-APC and anti-TNF-α-PE. Samples were read on a FACS Caliber (BD Biosciences) and analyzed using FloJo software (Tree Star, Inc.)
Because polyfunctional CD8^+ T cell responses are associated with protection (Harari et al., Immunol Rev 211:236 (2006)), the phenotype of the DENV-specific CD8^+ T cells in wild-type and IFN-α/βR^−/− mice was studied in more detail by measuring CD107a expression (CD107a, or LAMP-1, is expressed on the cell surface upon degranulation) and TNF-α production for two of the DENV-specific CD8^+ T cell populations, as described above. To collect the data, splenocytes harvested from wild-type or IFN-α/βR^−/− mice 7 days after infection with 10^11 or 10^10 GE of S221, respectively, were re-stimulated in vitro with C51-59, NS4B99-107, or an irrelevant peptide. An anti-CD107a Ab was added for the duration of the stimulation. Cells were then stained for surface CD8, intracellular IFN-γ and TNF-α, and analyzed by flow cytometry.

[1] = biological target: T1, purified H-2 D^b molecules (Mus musculus, UniProt P01899); experiment: MHC peptide-binding assay, purified H-2 D^b; details: purified MHC, radiolabeled peptide competition; read-out: Binding affinity (IC50 nM) H2-D^b
T1 construct: made in house
T1 sequence (P61769 21-119): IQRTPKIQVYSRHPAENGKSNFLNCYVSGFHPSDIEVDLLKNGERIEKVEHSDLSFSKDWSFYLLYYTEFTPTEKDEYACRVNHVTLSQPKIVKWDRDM
T1 sequence (P01899 25-362): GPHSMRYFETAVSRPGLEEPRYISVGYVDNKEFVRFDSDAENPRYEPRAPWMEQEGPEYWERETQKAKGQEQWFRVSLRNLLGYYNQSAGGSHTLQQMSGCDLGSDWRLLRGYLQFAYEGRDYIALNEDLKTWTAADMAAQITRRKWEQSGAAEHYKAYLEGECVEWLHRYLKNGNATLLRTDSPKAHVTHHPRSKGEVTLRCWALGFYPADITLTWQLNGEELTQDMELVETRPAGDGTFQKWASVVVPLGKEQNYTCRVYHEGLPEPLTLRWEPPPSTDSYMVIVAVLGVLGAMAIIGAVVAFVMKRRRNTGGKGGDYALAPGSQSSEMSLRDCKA
Method: (§1) Briefly, 0.1-1 nM of radiolabeled peptide was co-incubated at room temperature with 1 μM to 1 nM of purified MHC in the presence of 1-3 μM human β2-microglobulin (Scripps Laboratories) and a mixture of protease inhibitors. After a 2 day incubation, binding of the radiolabeled peptide to the corresponding MHC class I molecule was determined by capturing MHC/peptide complexes on Lumitrac 600 microplates (Greiner Bio-One) coated with either the Y3 (anti-H-2 K^b) or 28-14-8S (anti-H-2 D^b, L^d and D^q) Ab, followed by measurement of bound counts per minute (cpm) using the TopCount microscintillation counter (Packard).

[2] = biological target: T2, purified H-2 K^b molecules (Mus musculus, UniProt P01901); experiment: MHC peptide-binding assay, purified H-2 K^b; details: purified MHC, radiolabeled peptide competition; read-out: Binding affinity (IC50 nM) H2-K^b
T2 construct: made in house
T2 sequence (P61769 21-119): as the sequence (P61769 21-119) above
T2 sequence (P01901 22-369): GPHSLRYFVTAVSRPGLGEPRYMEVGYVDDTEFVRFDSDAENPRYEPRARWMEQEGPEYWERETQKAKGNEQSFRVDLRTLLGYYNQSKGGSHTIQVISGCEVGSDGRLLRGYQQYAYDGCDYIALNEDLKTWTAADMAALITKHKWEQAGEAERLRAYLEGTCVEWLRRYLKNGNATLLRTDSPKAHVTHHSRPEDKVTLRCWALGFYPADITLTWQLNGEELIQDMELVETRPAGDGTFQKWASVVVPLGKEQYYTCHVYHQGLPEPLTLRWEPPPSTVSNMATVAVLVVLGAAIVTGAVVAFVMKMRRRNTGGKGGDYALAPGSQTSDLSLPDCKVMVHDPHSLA
Method: as §1, with “MHC purification and quantitative assays to measure the binding affinity of peptides to purified H-2 K^b and H-2 D^b molecules were performed as previously described (Sidney et al., Curr Protoc Immunol 18:1813 2001); Vitiello et al., J Immunol 157:5555 (1996)). Briefly,” for “Briefly,”
To confirm the MHC class I restriction of the 12 identified epitopes, measurements were performed of their MHC binding capacity using purified K^b and D^b molecules in an in vitro binding assay. Seven of the 12 epitopes bound the predicted allele with either high or intermediate affinity, as indicated by an IC50 of <50 nM or <500 nM, respectively. The five remaining epitopes also bound with biologically relevant affinities in the 500-2000 nM range.

[3] = test system: DENV peptide-pulsed target cells; experiment: In vivo cytotoxicity assay; details: IFN-α/βR^−/− mice infected 7 days previously with 10^10 GE S221; 4 h after i.v. transfer; targets pulsed 0.5 μg/ml

## YSQVNPITL [NS4B99-107]
CD8^+ T cells
  CD107a surface expression (degranulation): expressed CD107a on the surface
  TNF-α production by peptide-specific CD8^+ T cells: produced TNF-α
[1]
  IC50: 1.3 nM
[2]
  IC50: 1890 nM
[3]
  percentage killing of peptide-pulsed target cells: 85%
